The test system of one data set is Male Sprague-Dawley Rats. Briefly: Serum clinical chemistries in rats fed compound as dietary admixture. The data set is classed as in vivo. Particulars: % of control, diet 0.3%, 4 days, N = 5; for ALT: alanine aminotransferase in rat serum; for ALP: alkaline phosphatase in rat serum; for AST: aspartate aminotransferase in rat serum; for GLUC: glucose in rat serum; for response vs control in vivo at 0.3 % in diet: feed or water, 96 h. The text has this: (§1) A typical experiment consists of 4-6 groups of rats (N = 5 per group) with I group being a control which receives no MDL compound and the other groups being treated with 0.3% MDL compound. Some of the compounds are either repeated at 0.3% or evaluated again at the lower dose of 0.1%. House Male Sprague-Dawley rats, 50-100 g, (Harlan Laboratories, Indianapolis, IN) in groups of 5, feeding ad libitum water and Purina Rodent chow (#5002) with or without MDL compound as a dietary admixture for 4 days. Make dietary admixtures (0.3%) by mixing 1.2 grams of an MDL compound with 400 grams of Purina rodent chow (#5002). Mix the MDL compound with approximately 50 grams of food using a mortar and pestle. This is added to the remainder of the food and mixed for 3 hours on a rotary mixer. In the morning of day 5, anesthetize non-fasted rats with carbon dioxide, and collect blood by cardiac puncture. Sacrifice rats by cervical dislocation. Record body weights and liver weights in grams. Record food consumption as grams • day^-1 • rat^-1. Deaths are recorded as mortality. Use aliquots of fresh serum for clinical chemistries, thiobarbituric acid reactive substances (TBARS) and conjugated diene measurements. Freeze aliquots of serum (∼ 0.5mL) and whole livers at -20°C for compound and metabolite concentration determination at a later time.
Allow blood to clot at room temperature for 30 minutes. Obtain serum after centrifugation for 10 min at 4°C at 3000 rpm in a Beckman J-6M/E centrifuge with a JS-4.2 rotor. Analyze fresh serum by a COBAS MIRA S autoanalyzer (Roche Diagnostics) using Roche diagnostic reagents for the following clinical chemistry measurements: alkaline phosphatase (ALP, kit # 44553), alanine transaminase (ALT, kit # 42375), aspartate aminotransferase (AST, kit # 42381), total cholesterol (CHOL, kit # 44334), triglyceride (TG, kit # 44120), and glucose (GLU, kit # 44558). Calculate ALP, ALT, and AST as units/L. Calculate cholesterol, triglycerides, and glucose as mg/dL.

A short description of data set [1]: Animal parameters (food, body weight, liver weight/body weight, mortality) in rats. The class given is in vivo. Conditions: 4 days; for food / lw/bw / body wt.: % of control, diet 0.3%, N = 5; for food: grams eaten per day per rat; for lw/bw: liver weight/body weight; for lw/bw / body wt. / mortality: rat; for body wt.: weight in grams; for mortality: male, Sprague-Dawley, in vivo.
Excerpt: as §1

The nature of data set [2]: HPLC quantitation of compound and metabolite concentration in rat serum and liver. The data set is classed as in vivo. Conditions: male, Sprague-Dawley, oral, 0.3 % in chow, diet 0.3%, 4 days, mean N = 5.
Excerpt: as §1
Determine serum and liver concentrations of parent compound and the metabolites, bisphenol and diphenoquinone, by reverse phase HPLC using a Waters 990 Powerline system. Homegenize livers (1 gram samples) with 5.0mL PBS, pH 7.4, using a Polytron tissue homogenizer at setting 5 for 20-30 seconds. Extract serum or liver homogenates as follows: add 100µL of either serum or homogenate to 2.0mL diethyl ether: ethanol (3:1) while vortexing the tube. Cap the sample tubes and centrifuge for 10 min at 5°C at 3500 rpm in a Beckman GPKR centrifuge with a GH 3.7 rotor. Transfer the supernatants to clean tubes and dry under N2. Reconstitute samples with 200µL of acetonitrile : hexane : 0.1 M ammonium acetate (90: 6.5 : 3.5, by vol.). Then, inject 100µL onto a Waters Deltapak C18-300 Å column, and elute with an 83% acetonitrile : 17% water mobile phase at a flow rate of 1.5mL/min. Record absorbances at the wavelengths of 240, 254, and 420nm. Calculate compound concentrations from known quantities of authentic parent compounds after correction for recovery. […]. Calculate concentrations as µg/mL of serum and µg/g of liver.

Data set [3] concerns oxidation of serum lipids. Briefly: TBARS assay on serum of treated rats (CuSO4-initiated oxidation). The class given is in vivo, Male Sprague-Dawley rats. Conditions: % of control; thiobarbituric acid reactive substances as nmoles MDA, rat serum; diet 0.3%, 4 days; N = 5.
Excerpt: as §1
In this assay the oxidation of serum lipids is initiated with CuSO4, resulting in the formation of aldehydes, such as malondialdehyde (MDA). Upon incubation with thiobarbituric acid, the absorbance of the aldehydes can be detected at 530-540 nm. As stated in the previous example, TBARS values which are lower than control serum values indicate the relative ability of a test compound to inhibit the oxidation of lipids in a sample. Measure TBARS as follows: mix 100µL of serum with 400µL of a 5mmol CuSO4 solution and incubate at 37°C for 3 hr. Stop the reactions by addition of 1.0mL of 20% trichloroacetic acid. Then add 1.0mL of 0.67% thiobarbituric acid in 0.05 N sodium hydroxide, mix, and incubate the samples for 30 min at 90°C. Centrifuge samples briefly to pellet undissolved material, and transfer the supernatants to a 96-well microtiter plate. Measure absorbances at 540 nm using a Biotek model EL311 microplate reader. The nmoles of MDA produced are calculated from a standard curve of 0 to 10 nmoles of MDA prepared from malonaldehyde bis(dimethylacetal). Serum samples from treated rats are compared to serum samples from control rats that received no MDL compound.

A further data set concerns oxidation of lipids. As to the kind of experiment: Conjugated diene lag phase determination on pooled serum of treated rats. The data set is classed as in vivo, Male Sprague-Dawley rats. Conditions: not normalized, mean of 2 determinations of pooled rat serum (N = 5), diet 0.3%, 4 days.
Excerpt: as §1
Conjugated diene lag phase is another indicator of the oxidation of lipids. Lipids exposed to Cu^++ form conjugated dienes that absorb ultraviolet light in the range of 230 to 235 nm. The lag phase of diene formation gives an indication of the amount of oxidation of the lipids. A lag phase longer than control samples indicate inhibition of the oxidation. Determine conjugated diene lay phase using a Varian DMS200 spectrophotometer (fitted with a constant temperature, 5 cuvette sample changer) at 30°C. Add twenty (20) µL of pooled serum to cuvettes containing 3.0mL phosphate buffered saline, pH 7.5, and mix. Measure the absorbances of all cuvettes and set the instrument baseline to zero using the lowest absorbing sample. Next, add 100µL of 1 mmol CuSO4 and mix immediately. Record the absorbance of each cuvette at 2 min intervals for a period of 840 min. Capture the data and transfer to a Microsoft EXCEL® spreadsheet where the curves are smoothed and differentials obtained. Determine lag times mathematically as minutes. Pool serum samples (N = 5); data presented are the mean values of 2 determinations. Compare serum samples from treated rats to serum samples from control rats that received no MDL compound.

Where [4] appears, read: total cholesterol in rat serum, read-out: CHOL.
The mark [5] stands for this setting: triglycerides in rat serum, read-out: TRIG.
The mark [6] stands for this setting: parent compound concentration in rat liver, read-out: Liver Parent.
Setting [7] is: parent compound concentration in rat serum, read-out: Serum Parent.

Consider six molecules from patent EP0942896B1, “SUBSTITUTED PHENOLS AND THIOPHENOLS USEFUL AS ANTIOXIDANT AGENTS” (Aventis Pharmaceuticals Inc., priority 1996, dated 1998).

Like-named read-outs stand apart in the source and are kept apart here.

One may read the mortality as the percentage killed. Higher therefore signals a strong lethal effect.

As for `CC(C)=CCC[C@H](C)CCOc1cc(C(C)(C)C)c(O)cc1C(C)(C)C` [MDL 107,059, Phenol, 2,5-bis(1,1-dimethylethyl)-4-[(3,7-dimethyl-6-octenyl)oxy]-, (S)-], in the data set on Male Sprague-Dawley Rats, the ALT stood at 116%, the ALP came to 118%, the AST amounted to 140% and the GLUC was 96%. In addition, the response vs control in vivo at 0.3 % in diet with Male Sprague-Dawley Rats (setting [4]) is 89%. Also, the response vs control in vivo at 0.3 % in diet in the data set on Male Sprague-Dawley Rats (setting [5]) worked out at 35%. In data set [1], this molecule came in with a food of 95%, a lw/bw of 107%, a body wt. of 95% and a mortality of 0%. Besides, in data set [2] (setting [6]), the concentration at 5 day came to 0 ng/g. In addition, the concentration at 5 day in data set [2] (setting [7]) is 0 µg/mL. The molecule also came in with a TBARS in data set [3] of 78%. In the data set with oxidation of lipids, the “CONJ. DIENE” value was found to be 201 min.
For `CC(C)=CCCC(C)CCOc1ccc(O)c(C(C)(C)C)c1` (stereo not shown) [MDL 105,411, Phenol, 2-(1,1-dimethylethyl)-4-[(3,7-dimethyl-6-octenyl)oxy]-], in the data set on Male Sprague-Dawley Rats, the ALT is on record as 122%, the ALP came out at 76%, the AST turned out to be 87% and the GLUC was 96%. For the same molecule, in the data set on Male Sprague-Dawley Rats (setting [4]), the response vs control in vivo at 0.3 % in diet is 105%. Moreover, the response vs control in vivo at 0.3 % in diet in the data set on Male Sprague-Dawley Rats (setting [5]) came to 100%. In data set [1], this molecule came in with a food of 95%, a lw/bw of 114%, a body wt. of 101% and a mortality of 0%. Moreover, the concentration at 5 day in data set [2] (setting [6]) worked out at 0 ng/g. Moreover, in data set [2] (setting [7]), the concentration at 5 day stood at 1.1 µg/mL. Besides, in data set [3], the TBARS was found to be 29%. The “CONJ. DIENE” value with oxidation of lipids is 400 min.
`CC(C)=CCC[C@H](C)CCOc1ccc(O)c(C(C)(C)C)c1` (stereo in doubt) [MDL 103,649, Phenol, 2-(1,1-dimethylethyl)-4-[(3,7-dimethyl-6-octenyl)oxy]-, (S)-]: in the data set with Male Sprague-Dawley Rats, the ALT is recorded as 119%, the ALP stood at 74%, the AST worked out at 82% and the GLUC was 101%. In addition, in the data set on Male Sprague-Dawley Rats (setting [4]), the response vs control in vivo at 0.3 % in diet came to 89%. Further, the response vs control in vivo at 0.3 % in diet in the data set with Male Sprague-Dawley Rats (setting [5]) worked out at 143%. Moreover, in data set [1], the food amounted to 95%, the lw/bw was found to be 111%, the body wt. is given as 94% and the mortality turned out to be 0%. In data set [2] (setting [6]), the concentration at 5 day is 0 ng/g. In addition, the concentration at 5 day in data set [2] (setting [7]) is 1.4 µg/mL. The same molecule came in with a TBARS in data set [3] of 29%. For the same molecule, the “CONJ. DIENE” value in the data set on oxidation of lipids was determined as 375 min.
For `CC(CCCC(C)(C)O)CCSc1cc(C(C)(C)C)c(O)c(C(C)(C)C)c1` (stereo not shown) [MDL 104,487, Phenol, 2,6-bis(1,1-dimethylethyl)-4-[(7-hydroxy-3,7-dimethyloctyl)thio]-], in the data set with Male Sprague-Dawley Rats, the ALT came to 129%, the ALP worked out at 137%, the AST is reported as 124% and the GLUC worked out at 92%. Moreover, the response vs control in vivo at 0.3 % in diet with Male Sprague-Dawley Rats (setting [4]) is 127%. Further, the response vs control in vivo at 0.3 % in diet with Male Sprague-Dawley Rats (setting [5]) worked out at 108%. Moreover, in data set [1], the food is reported as 90%, the lw/bw came out at 150%, the body wt. was determined as 95% and the mortality was 0%. The concentration at 5 day in data set [2] (setting [6]) is 3800 ng/g. The concentration at 5 day in data set [2] (setting [7]) was determined as 4.1 µg/mL. Also, the TBARS in data set [3] is recorded as 87%.
For `CC(C)=CCC[C@H](C)CCSc1ccc(O)c(C(C)(C)C)c1` [MDL 103,714, Phenol, 2-(1,1-dimethylethyl)-4-[(3,7-dimethyl-6-octenyl)thio]-, (S)-], in the data set with Male Sprague-Dawley Rats, the ALT was found to be 120%, the ALP came to 111%, the AST worked out at 104% and the GLUC turned out to be 95%. Further, the response vs control in vivo at 0.3 % in diet in the data set on Male Sprague-Dawley Rats (setting [4]) amounted to 90%. Moreover, the response vs control in vivo at 0.3 % in diet with Male Sprague-Dawley Rats (setting [5]) came to 122%. For the same molecule, in data set [1], the food amounted to 102%, the lw/bw stood at 121%, the body wt. is reported as 103% and the mortality is 0%. The concentration at 5 day in data set [2] (setting [6]) was determined as 0 ng/g. Further, the concentration at 5 day in data set [2] (setting [7]) was determined as 2.7 µg/mL. In addition, the TBARS in data set [3] was 21%.
Turning to `CC(C)CCCC(C)CCOc1cc(C(C)(C)C)c(O)c(C(C)(C)C)c1` (stereo not shown) [MDL 104,102, Phenol, 2,6-bis(1,1-dimethylethyl)-4-[(3,7-dimethyloctyl)oxy]-], in the data set with Male Sprague-Dawley Rats, the ALT amounted to 114%, the ALP is 101%, the AST is 82% and the GLUC amounted to 98%. Also, the response vs control in vivo at 0.3 % in diet with Male Sprague-Dawley Rats (setting [4]) amounted to 100%. The response vs control in vivo at 0.3 % in diet in the data set on Male Sprague-Dawley Rats (setting [5]) stood at 127%. In data set [1], the food is 92%, the lw/bw is recorded as 121%, the body wt. worked out at 97% and the mortality was found to be 0%. Moreover, the concentration at 5 day in data set [2] (setting [6]) worked out at 481000 ng/g. For the same molecule, the concentration at 5 day in data set [2] (setting [7]) was 32.8 µg/mL. Besides, in data set [3], the TBARS was 71%. The “CONJ. DIENE” value in the data set on oxidation of lipids was found to be 229 min.
